From patent US20230363391A1, “Biocidal Composition and Method” (ARXADA AG, priority 2020, published 2023)
Marks after values point to notes of the source that are not given here.

Assays:
[1] = neutral pH; cited from earlier work
[2] = system: Pseudomonas aeruginosa, Escherichia coli, Enterobacter cloacae, Acinetobacter calcoaceticus; assay: In-can challenge test, modified ASTM D2574-97 (Table 1); format: cell-based
Experimental: (§1) Various formulations were made in accordance with the present disclosure and tested for performance. In one challenge test, the efficacy of dicyandiamide as an adjuvant for BIT was evaluated using modified ASTM D2574-97 “Standard Test Method for Resistance of Emulsion Paints in the Container to Attack by Microorganisms” with higher inoculation volumes and frequency. A standard consortium of four (4) bacterial populations: Pseudomonas aeruginosa, Escherichia coli, Enterobacter cloacae, Acinetobacter calcoaceticus was used to inoculate three (3) different samples at ten percent (10%), five percent (5%), or two and a half percent (2.5%) of the sample size. At twenty-four (24) hours and seventy-two (72) hours after each inoculation, a portion of each sample was streaked on tryptic soy agar. A dilution plate count was performed at the last seventy-two (72) hour time point.
(§2) Example data provided in Tables 1, 2 and 3 should be understood as indicating the degree of microbial growth observed for a given data point unless otherwise indicated. In particular, each plate is ranked from 0 through 5c (i.e., one of 0, 1, 2, 3, 4, 5, or 5c) according to the degree of observed microbial growth, where: a “0” ranking indicates no growth; a “1” ranking indicates one (1) through five (5) observed colony forming unit (cfu), i.e., the plate was very lightly contaminated; a “2” ranking indicates six (6) through fifteen (15) cfu, i.e., the plate was lightly contaminated; a “3” ranking indicates sixteen (16) through thirty (30) cfu, i.e., the plate was moderately contaminated; a “4” ranking indicates thirty-one (31) through forty-five (45) cfu, i.e., the plate was heavily contaminated; a “5” ranking indicates greater than (45) cfu, i.e., the plate was severely contaminated; and a “5c” ranking indicates confluent growth, i.e., the plate was very severely contaminated. Thus, for instance, Table 1, Challenge 1 at 24 h for BIT 50 ppm has a value of 5 indicating greater than forty-five (45) cfu were observed. As another example for illustration, Table 1, Challenge 1 at 24 h for dicyandiamide 5,000 ppm + BIT 50 ppm has a value of 1 indicating one (1) through five (5) cfu was observed.

[3] = system: Pseudomonas aeruginosa, Escherichia coli, Enterobacter cloacae, Acinetobacter calcoaceticus; assay: Repeat in-can challenge test, same conditions (Table 2); format: cell-based
Experimental: as §1, §2

[4] = system: microbial growth; assay: In-can challenge test of dicyandiamide as adjuvant for MIT (Table 3); format: cell-based; details: for Passing result of challenge test (asterisk on sample) / 1st 24, degree of microbial growth (ranking) / 1st 72, degree of microbial growth (ranking) / 2nd 72, degree of microbial growth (ranking) / 3rd 24, degree of microbial growth (ranking) / 3rd 72, degree of microbial growth (ranking): Dicyandiamide 0
Text: However, using a combination of MIT and dicyandiamide can allow for effective microbial control at MIT concentrations as low as 20 ppm.
as §2

[5] = system: bacteria, fungi, and yeast; details: background statement; cited from earlier work
[6] = MIT - 50 30 ppm (MIT 15 ppm as active)
[7] = MIT - 50 40 ppm (MIT 20 ppm as active)
[8] = MIT - 50 50 ppm (MIT 25 ppm as active)
[9] = MIT - 50 60 ppm (MIT 30 ppm as active)
[10] = MIT - 50 70 ppm (MIT 35 ppm as active)

Zinc pyrithione [ZPT]
Solubility in water [1]: 8 ppm

N#CN=C(N)N [Dicyandiamide, 2-cyanoguanidine]
Challenge 1 10% 24 h, degree of microbial growth (ranking) ([2]; Dicyandiamide 5,000 ppm): 5c
Challenge 1 10% 72 h, degree of microbial growth (ranking) ([2]; Dicyandiamide 5,000 ppm): 5c
Challenge 2 5% 72 h, degree of microbial growth (ranking) ([2]; Dicyandiamide 5,000 ppm): 5c
Challenge 3 2.5% 24 h, degree of microbial growth (ranking) ([2]; Dicyandiamide 5,000 ppm): 5c
Challenge 3 2.5% 72 h, dilution plate count ([2]; Dicyandiamide 5,000 ppm): 8.0×10^6
Challenge 1 10% 24 h, degree of microbial growth (ranking) ([2]; Dicyandiamide 10,000 ppm): 5c
Challenge 1 10% 72 h, degree of microbial growth (ranking) ([2]; Dicyandiamide 10,000 ppm): 1 (one (1) through five (5) observed colony forming unit (cfu), i.e., the plate was very lightly contaminated)
Challenge 2 5% 72 h, degree of microbial growth (ranking) ([2]; Dicyandiamide 10,000 ppm): 5 (greater than (45) cfu, i.e., the plate was severely contaminated)
Challenge 3 2.5% 24 h, degree of microbial growth (ranking) ([2]; Dicyandiamide 10,000 ppm): 5 (greater than (45) cfu, i.e., the plate was severely contaminated)
Challenge 3 2.5% 72 h, dilution plate count ([2]; Dicyandiamide 10,000 ppm): 4.2×10^6
Efficacy in challenge test compared to the blank ([2]; dicyandiamide alone, not in combination with BIT, Table 1): no significant difference compared to the blank
Challenge 1 10% 24 h, degree of microbial growth (ranking) ([3]; Dicyandiamide 5,000 ppm): 5c
Challenge 1 10% 72 h, degree of microbial growth (ranking) ([3]; Dicyandiamide 5,000 ppm): 5c
Challenge 2 5% 72 h, degree of microbial growth (ranking) ([3]; Dicyandiamide 5,000 ppm): 5c
Challenge 3 2.5% 24 h, degree of microbial growth (ranking) ([3]; Dicyandiamide 5,000 ppm): 5c
Challenge 3 2.5% 72 h, dilution plate count ([3]; Dicyandiamide 5,000 ppm): 2.4×10^7

Cn1sccc1=O [MIT - 50, 2-methyl-4-isothiazolin-3-one]
Passing result of challenge test (asterisk on sample) ([4]; MIT 30 ppm as active): MIT - 50 60 ppm (30)*
Passing result of challenge test (asterisk on sample) ([4]; MIT 35 ppm as active): MIT - 50 70 ppm (35)*
1st 24, degree of microbial growth (ranking) [4, 6]: 5 (greater than (45) cfu, i.e., the plate was severely contaminated)
1st 72, degree of microbial growth (ranking) [4, 6]: 5 (greater than (45) cfu, i.e., the plate was severely contaminated)
2nd 72, degree of microbial growth (ranking) [4, 6]: 5 (greater than (45) cfu, i.e., the plate was severely contaminated)
3rd 24, degree of microbial growth (ranking) [4, 6]: 5 (greater than (45) cfu, i.e., the plate was severely contaminated)
3rd 72, degree of microbial growth (ranking) [4, 6]: 5 (greater than (45) cfu, i.e., the plate was severely contaminated)
1st 24, degree of microbial growth (ranking) [4, 7]: 5 (greater than (45) cfu, i.e., the plate was severely contaminated)
1st 72, degree of microbial growth (ranking) [4, 7]: 5 (greater than (45) cfu, i.e., the plate was severely contaminated)
2nd 72, degree of microbial growth (ranking) [4, 7]: 5 (greater than (45) cfu, i.e., the plate was severely contaminated)
3rd 24, degree of microbial growth (ranking) [4, 7]: 5 (greater than (45) cfu, i.e., the plate was severely contaminated)
3rd 72, degree of microbial growth (ranking) [4, 7]: 5 (greater than (45) cfu, i.e., the plate was severely contaminated)
1st 24, degree of microbial growth (ranking) [4, 8]: 5 (greater than (45) cfu, i.e., the plate was severely contaminated)
1st 72, degree of microbial growth (ranking) [4, 8]: 2 (six (6) through fifteen (15) cfu, i.e., the plate was lightly contaminated)
2nd 72, degree of microbial growth (ranking) [4, 8]: 5 (greater than (45) cfu, i.e., the plate was severely contaminated)
3rd 24, degree of microbial growth (ranking) [4, 8]: 5 (greater than (45) cfu, i.e., the plate was severely contaminated)
3rd 72, degree of microbial growth (ranking) [4, 8]: 5 (greater than (45) cfu, i.e., the plate was severely contaminated)
1st 24, degree of microbial growth (ranking) [4, 9]: 5 (greater than (45) cfu, i.e., the plate was severely contaminated)
1st 72, degree of microbial growth (ranking) [4, 9]: 0
2nd 72, degree of microbial growth (ranking) [4, 9]: 5 (greater than (45) cfu, i.e., the plate was severely contaminated)
3rd 24, degree of microbial growth (ranking) [4, 9]: 5 (greater than (45) cfu, i.e., the plate was severely contaminated)
3rd 72, degree of microbial growth (ranking) [4, 9]: 0
1st 24, degree of microbial growth (ranking) [4, 10]: 5 (greater than (45) cfu, i.e., the plate was severely contaminated)
1st 72, degree of microbial growth (ranking) [4, 10]: 0
2nd 72, degree of microbial growth (ranking) [4, 10]: 0
3rd 24, degree of microbial growth (ranking) [4, 10]: 5 (greater than (45) cfu, i.e., the plate was severely contaminated)
3rd 72, degree of microbial growth (ranking) [4, 10]: 0
MIT concentration displaying passing results ([4]; MIT alone, no guanidine enhancer): ≥ 30 ppm

O=c1[nH]sc2ccccc12 [BIT, 1,2-benzisothiazolin-3-one]
Challenge 1 10% 24 h, degree of microbial growth (ranking) ([2]; BIT 50 ppm): 5 (greater than (45) cfu, i.e., the plate was severely contaminated)
Challenge 1 10% 72 h, degree of microbial growth (ranking) ([2]; BIT 50 ppm): 2 (six (6) through fifteen (15) cfu, i.e., the plate was lightly contaminated)
Challenge 2 5% 72 h, degree of microbial growth (ranking) ([2]; BIT 50 ppm): 5 (greater than (45) cfu, i.e., the plate was severely contaminated)
Challenge 3 2.5% 24 h, degree of microbial growth (ranking) ([2]; BIT 50 ppm): 5c
Challenge 3 2.5% 72 h, dilution plate count ([2]; BIT 50 ppm): 7.8×10^6
Challenge 1 10% 24 h, degree of microbial growth (ranking) ([2]; BIT 100 ppm): 5 (greater than (45) cfu, i.e., the plate was severely contaminated)
Challenge 1 10% 72 h, degree of microbial growth (ranking) ([2]; BIT 100 ppm): 0
Challenge 2 5% 72 h, degree of microbial growth (ranking) ([2]; BIT 100 ppm): 0
Challenge 3 2.5% 24 h, degree of microbial growth (ranking) ([2]; BIT 100 ppm): 5 (greater than (45) cfu, i.e., the plate was severely contaminated)
Challenge 3 2.5% 72 h, dilution plate count ([2]; BIT 100 ppm): 5.0×10^1
Challenge 1 10% 24 h, degree of microbial growth (ranking) ([3]; BIT 35 ppm): 5c
Challenge 1 10% 72 h, degree of microbial growth (ranking) ([3]; BIT 35 ppm): 5c
Challenge 2 5% 72 h, degree of microbial growth (ranking) ([3]; BIT 35 ppm): 5c
Challenge 3 2.5% 24 h, degree of microbial growth (ranking) ([3]; BIT 35 ppm): 5c
Challenge 3 2.5% 72 h, dilution plate count ([3]; BIT 35 ppm): 3.0×10^6
Challenge 1 10% 24 h, degree of microbial growth (ranking) ([3]; BIT 50 ppm): 5c
Challenge 1 10% 72 h, degree of microbial growth (ranking) ([3]; BIT 50 ppm): 5c
Challenge 2 5% 72 h, degree of microbial growth (ranking) ([3]; BIT 50 ppm): 5c
Challenge 3 2.5% 24 h, degree of microbial growth (ranking) ([3]; BIT 50 ppm): 5c
Challenge 3 2.5% 72 h, dilution plate count ([3]; BIT 50 ppm): 6.6×10^6
Challenge 1 10% 24 h, degree of microbial growth (ranking) ([3]; BIT 65 ppm): 5c
Challenge 1 10% 72 h, degree of microbial growth (ranking) ([3]; BIT 65 ppm): 3 (sixteen (16) through thirty (30) cfu, i.e., the plate was moderately contaminated)
Challenge 2 5% 72 h, degree of microbial growth (ranking) ([3]; BIT 65 ppm): 5c
Challenge 3 2.5% 24 h, degree of microbial growth (ranking) ([3]; BIT 65 ppm): 5c
Challenge 3 2.5% 72 h, dilution plate count ([3]; BIT 65 ppm): 1.0×10^6
Challenge 1 10% 24 h, degree of microbial growth (ranking) ([3]; BIT 75 ppm): 5c
Challenge 1 10% 72 h, degree of microbial growth (ranking) ([3]; BIT 75 ppm): 0
Challenge 2 5% 72 h, degree of microbial growth (ranking) ([3]; BIT 75 ppm): 5 (greater than (45) cfu, i.e., the plate was severely contaminated)
Challenge 3 2.5% 24 h, degree of microbial growth (ranking) ([3]; BIT 75 ppm): 5c
Challenge 3 2.5% 72 h, dilution plate count ([3]; BIT 75 ppm): 2.8×10^5
Challenge 1 10% 24 h, degree of microbial growth (ranking) ([3]; BIT 100 ppm): 5c
Challenge 1 10% 72 h, degree of microbial growth (ranking) ([3]; BIT 100 ppm): 0
Challenge 2 5% 72 h, degree of microbial growth (ranking) ([3]; BIT 100 ppm): 5 (greater than (45) cfu, i.e., the plate was severely contaminated)
Challenge 3 2.5% 24 h, degree of microbial growth (ranking) ([3]; BIT 100 ppm): 5c
Challenge 3 2.5% 72 h, dilution plate count ([3]; BIT 100 ppm): 1.8×10^7
Amount required for a reliable and quick biocidal activity [5]: ≤ 500 ppm
